Data on 32 compounds can be found in patent publication US10118930B2, “Piperidinylpyrazolopyrimidinones and their use” (BAYER PHARMA AKTIENGESELLSCHAFT, priority 2015, dated 2018).

The structures appear in SMILES notation. Counter-ions that a name gives are not always drawn.

The test system of the experiment is clot lysis (fibrinolysis) in diluted human citrated plasma, tPA-induced. In words: Plasma-based clot lysis assay (5%). The format is biochemical. To be noted: human citrated platelet-poor plasma 5%, fibrinogen 3 μM, CaCl2 10 mM, tPA 0.2 nM, 37° C., OD at 405 nm. In a few lines:
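Compounds added to 5% platelet-poor citrated human plasma with 3 μM fibrinogen in 20 mM HEPES, 150 mM NaCl, 0.01% Brij, pH 7. Clotting and lysis started with 10 mM CaCl2 and 0.2 nM tPA at 37° C. IC50 derived by comparing time courses with a blank control reaction.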
The term IC50 denotes the concentration needed to halve the response being measured. `Cc1ccc(-c2noc(-c3c(C)nn4c(C5CCNCC5)cc(=O)[nH]c34)n2)cc1` [Example 306, 2-methyl-3-[3-(4-methylphenyl)-1,2,4-oxadiazol-5-yl]-7-(piperidin-4-yl)pyrazolo[1,5-a]pyrimidin-5(4H)-one hydrochloride] displayed a concentration for half-maximal inhibition (IC50) of 11 nM.
The figure for `N#Cc1ccc(-c2cnn3c(C4CCNCC4)cc(=O)[nH]c23)cc1` [Example 47, 4-[5-Oxo-7-(piperidin-4-yl)-4,5-dihydropyrazolo[1,5-a]pyrimidin-3-yl]benzonitrile trifluoroacetate] is 13 nM; for `Cc1ccccc1N(C)C(=O)c1c(C)nn2c(C3CCNCC3)cc(=O)[nH]c12` [Example 431, N,2-dimethyl-N-(2-methyl-phenyl)-5-oxo-7-(piperidin-4-yl)-4,5-dihydro-pyrazolo[1,5-a] pyrimidine-3-carboxamide hydrochloride] it is 28 nM; for `O=c1cc(C2CCNCC2)n2ncc(-c3nc(Cc4ccccc4Cl)no3)c2[nH]1` [Example 209, 3-[3-(2-chlorobenzyl)-1,2,4-oxadiazol-5-yl]-7-(piperidin-4-yl)pyrazolo[1,5-a]pyrimidin-5(4H)-one hydrochloride] it is 36 nM.
As for `Cc1nn2c(C3CCNCC3)cc(=O)[nH]c2c1C(=O)N1CCCCC1` [Example 399, 2-methyl-7-(piperidin-4-yl)-3-(piperidin-1-ylcarbonyl) pyrazolo[1,5-a] pyrimidin-5(4H)-one hydrochloride], inhibition was half-maximal at 42 nM (IC50).
To `O=c1cc(C2CCNCC2)n2ncc(-c3nc(-c4ccc(C(F)(F)F)c(F)c4)no3)c2[nH]1` [Example 134, 3-{3-[3-Fluoro-4-(trifluoromethyl)phenyl]-1,2,4-oxadiazol-5-yl}-7-(piperidin-4-yl)pyrazolo[1,5-a]pyrimidin-5(4H)-one hydrochloride] belongs 43 nM.
The figure for `Cc1nn2c(C3CCNCC3)cc(=O)[nH]c2c1C(=O)N1CC(C)CC(C)C1` (centres unmarked) [Example 421, 3-[(3,5-dimethyl-piperidin-1-yl)carbonyl]-2-methyl-7-(piperidin-4-yl) pyrazolo[1,5-a] pyrimidin-5(4H)-one hydrochloride] is 30 nM; for `Cc1cc(CN(C)C(=O)c2cnn3c(C4CCNCC4)cc(=O)[nH]c23)no1` [Example 316, N-methyl-N-[(5-methyl-1,2-oxazol-3-yl)methyl]-5-oxo-7-(piperidin-4-yl)-4,5-dihydropyrazolo[1,5-a]pyrimidine-3-carboxamide hydrochloride] it is 27 nM.
The figure for `CCN(C(=O)c1c(C)nn2c(C3CCNCC3)cc(=O)[nH]c12)C1CC1` [Example 400, N-cyclopropyl-N-ethyl-2-methyl-5-oxo-7-(piperidin-4-yl)-4,5-dihydro-pyrazolo[1,5-a] pyrimidine-3-carboxamide hydrochloride] is 32 nM; for `Cc1nn2c(C3CCNCC3)cc(=O)[nH]c2c1C(=O)N1CCC(C)(C)CC1` [Example 434, 3-[(4,4-dimethyl-piperidin-1-yl)carbonyl]-2-methyl-7-(piperidin-4-yl) pyrazolo[1,5-a] pyrimidin-5(4H)-one hydrochloride] it is 32 nM.
In turn, `O=c1cc(C2CCNCC2)n2ncc(-c3noc(-c4cccc(Cl)c4F)n3)c2[nH]1` [Example 218, 3-[5-(3-chloro-2-fluorophenyl)-1,2,4-oxadiazol-3-yl]-7-(piperidin-4-yl)pyrazolo[1,5-a]pyrimidin-5(4H)-one hydrochloride] returned an IC50 of 54 nM.
The figure for `Cc1nn2c(C3CCNCC3)cc(=O)[nH]c2c1C#N` [Example 8, 2-Methyl-5-oxo-7-(piperidin-4-yl)-4,5-dihydropyrazolo[1,5-a]pyrimidine-3-carbonitrile trifluoroacetate] is 29 nM.
In turn, `CC(C)(C)C[C@@H]1C[C@H](c2cc(=O)[nH]c3c(-c4nc(-c5ccccc5F)no4)cnn23)CCN1` [Example 349, 7-[(2S,4R)-2-(2,2-dimethylpropyl)piperidin-4-yl]-3-[3-(2-fluorophenyl)-1,2,4-oxadiazol-5-yl]pyrazolo[1,5-a]pyrimidin-5(4H)-one hydrochloride] returned an IC50 of 21 nM.
In turn, `O=c1cc(C2CCNCC2)n2nc(-c3ccc(F)cc3)cc2[nH]1` [Example 27, 2-(4-Fluorophenyl)-7-(piperidin-4-yl)pyrazolo[1,5-a]pyrimidin-5(4H)-one hydrochloride] had an IC50 of 170 nM.
To `O=c1cc(C2CCNCC2)n2ncc(-c3nc(Cc4ccccc4)no3)c2[nH]1` [Example 106, 3-(3-benzyl-1,2,4-oxadiazol-5-yl)-7-(piperidin-4-yl)pyrazolo[1,5-a]pyrimidin-5(4H)-one] belongs 63 nM; to `Cc1cc(F)ccc1NC(=O)c1cnn2c(C3CCNCC3)cc(=O)[nH]c12` [Example 81, N-(4-fluoro-2-methylphenyl)-5-oxo-7-(piperidin-4-yl)-4,5-dihydropyrazolo[1,5-a]pyrimidine-3-carboxamide], 81 nM.
To `CN(CC(F)(F)F)C(=O)c1cnn2c(C3CCNCC3)cc(=O)[nH]c12` [Example 103, N-methyl-5-oxo-7-(piperidin-4-yl)-N-(2,2,2-trifluoroethyl)-4,5-dihydropyrazolo[1,5-a]pyrimidine-3-carboxamide hydrochloride] belongs 35 nM; to `N#Cc1csc(-c2cnn3c(C4CCNCC4)cc(=O)[nH]c23)c1` [Example 68, 5-[5-Oxo-7-(piperidin-4-yl)-4,5-dihydropyrazolo[1,5-a]pyrimidin-3-yl]thiophene-3-carbonitrile trifluoroacetate], 11 nM.
The figure for `CSc1nn2c(C3CCNCC3)cc(=O)[nH]c2c1C(=O)O` [Example 469, 2-(methylsulfanyl)-5-oxo-7-(piperidin-4-yl)-4,5-dihydropyrazolo[1,5-a]pyrimidine-3-carboxylic acid hydrochloride] is 160 nM; for `CC1(C)CCN(Cc2cnn3c(C4CCNCC4)cc(=O)[nH]c23)C1` [Example 324, 3-[(3,3-dimethylpyrrolidin-1-yl)methyl]-7-(piperidin-4-yl)pyrazolo[1,5-a]pyrimidin-5(4H)-one hydrochloride] it is 150 nM.
The compound `N#Cc1ccccc1-c1cnn2c(C3CCNCC3)cc(=O)[nH]c12` [Example 49, 2-[5-Oxo-7-(piperidin-4-yl)-4,5-dihydropyrazolo[1,5-a]pyrimidin-3-yl]benzonitrile trifluoroacetate] came in with a half-maximal inhibitory concentration (IC50) of 16 nM.
The figure for `CCN(C)C(=O)c1c(C)nn2c(C3CCNCC3)cc(=O)[nH]c12` [Example 424, N-ethyl-N,2-dimethyl-5-oxo-7-(piperidin-4-yl)-4,5-dihydro-pyrazolo[1,5-a] pyrimidine-3-carboxamide hydrochloride] is 78 nM; for `C[C@@H]1CCN(C(=O)c2cnn3c(C4CCNCC4)cc(=O)[nH]c23)C1` [Example 321, 3-{[(3R)-3-methylpyrrolidin-1-yl]carbonyl}-7-(piperidin-4-yl)pyrazolo[1,5-a]pyrimidin-5(4H)-one hydrochloride] it is 82 nM.
To `CC(F)(F)COC(=O)c1cnn2c(C3CCNCC3)cc(=O)[nH]c12` [Example 463, 2,2-difluoropropyl 5-oxo-7-(piperidin-4-yl)-4,5-dihydropyrazolo[1,5-a]pyrimidine-3-carboxylate hydrochloride] belongs 51 nM.
To `Cc1ccccc1-c1noc(-c2c(C)nn3c(C4CCNCC4)cc(=O)[nH]c23)n1` [Example 440, 2-methyl-3-[3-(2-methylphenyl)-1,2,4-oxadiazol-5-yl]-7-(piperidin-4-yl)pyrazolo[1,5-a]pyrimidin-5(4H)-one hydrochloride] belongs 23 nM; to `O=c1cc(C2CCNCC2)n2ncc(-c3noc(-c4ccc(Cl)cc4)n3)c2[nH]1` [Example 233, 3-[5-(4-chlorophenyl)-1,2,4-oxadiazol-3-yl]-7-(piperidin-4-yl)pyrazolo[1,5-a]pyrimidin-5(4H)-one hydrochloride], 36 nM.
Take `O=c1cc(C2CCNCC2)n2ncc(-c3nnc(-c4cccc(C(F)(F)F)c4)o3)c2[nH]1` [Example 175, 7-(piperidin-4-yl)-3-{5-[3-(trifluoromethyl)phenyl]-1,3,4-oxadiazol-2-yl}pyrazolo[1,5-a]pyrimidin-5(4H)-one hydrochloride]: the IC50 came to 35 nM.
On to `COc1ccc(C2(c3nnc(-c4cnn5c(C6CCNCC6)cc(=O)[nH]c45)o3)CC2)cc1` [Example 305, 3-{5-[1-(4-methoxyphenyl)cyclopropyl]-1,3,4-oxadiazol-2-yl}-7-(piperidin-4-yl)pyrazolo[1,5-a]pyrimidin-5(4H)-one hydrochloride], for which the IC50 stood at 20 nM.
To `O=c1cc(C2CCNCC2)n2ncc(-c3nc(-c4ccc(C(F)(F)F)cc4Cl)no3)c2[nH]1` [Example 136, 3-{3-[2-Chloro-4-(trifluoromethyl)phenyl]-1,2,4-oxadiazol-5-yl}-7-(piperidin-4-yl)pyrazolo[1,5-a]pyrimidin-5(4H)-one hydrochloride] belongs 43 nM; to `Cc1cccc(-c2noc(-c3cnn4c(C5CCNCC5)cc(=O)[nH]c34)n2)c1` [Example 120, 3-[3-(3-Methylphenyl)-1,2,4-oxadiazol-5-yl]-7-(piperidin-4-yl)pyrazolo[1,5-a]pyrimidin-5 (4H)-one hydrochloride], 35 nM; to `O=c1cc(C2CCNCC2)n2ncc(-c3nnc(CC4CCCCC4)o3)c2[nH]1` [Example 182, 3-[5-(cyclohexylmethyl)-1,3,4-oxadiazol-2-yl]-7-(piperidin-4-yl)pyrazolo[1,5-a]pyrimidin-5 (4H)-one hydrochloride], 35 nM.
The figure for `CC(C)N1CCC(c2noc(-c3cnn4c(C5CCNCC5)cc(=O)[nH]c34)n2)CC1` [Example 264, 7-(piperidin-4-yl)-3-{3-[1-(propan-2-yl)piperidin-4-yl]-1,2,4-oxadiazol-5-yl}pyrazolo[1,5-a]pyrimidin-5(4H)-one hydrochloride] is 200 nM.
